Values joined by “and” are separate entries in the source; they are usually repeats but may differ in a detail not shown here. Equal values may be shown once.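 Dose response: 5 concentrations. Exposure: 48 h. Format: 96-well plates. Endpoint: linear interpolation; highest concentration if not reached. GI50 = concentration required for 50% inhibition of growth. Definition used: TGI = concentration required for complete inhibition of growth.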
What was measured:
Assay in all cases: DTP human tumour cell line panel, 48 h
OVCAR-8 ovarian = system: OVCAR-8 ovarian
NCI-H23 lung = system: NCI-H23 lung
HOP-92 NSCLC = system: HOP-92 NSCLC
HS 578T breast = system: HS 578T breast
UO-31 renal = system: UO-31 renal
OVCAR-3 ovarian = system: OVCAR-3 ovarian
SF-295 CNS = system: SF-295 CNS

## CC1C(C)N(C(=O)CCl)c2ccccc2N1C(=O)CCl (stereo unspecified)
OVCAR-8 ovarian
  GI50: 0.55 µM
  TGI: 12.5 µM
NCI-H23 lung
  GI50: 0.705 µM
  TGI: 2.68 µM
HOP-92 NSCLC
  GI50: 0.709 µM
  TGI: 1.84 µM
HS 578T breast
  GI50: 1.06 µM
  TGI: 7.63 µM
UO-31 renal
  GI50: 0.168 µM
  TGI: 0.346 µM
OVCAR-3 ovarian
  GI50: 0.194 µM
  TGI: 0.428 µM
SF-295 CNS
  GI50: 1.45 µM
  TGI: 3.06 µM

## O=S(=O)(NNc1ccccc1)c1ccccc1
OVCAR-8 ovarian
  TGI: > 100 µM
NCI-H23 lung
  TGI: > 100 µM
HOP-92 NSCLC
  TGI: 55.4 µM
HS 578T breast
  TGI: > 100 µM
UO-31 renal
  TGI: 25.7 µM
OVCAR-3 ovarian
  TGI: 58.7 µM
SF-295 CNS
  TGI: 25.4 µM

## CNC(=O)c1cc(Oc2ccc(NC(=O)Nc3ccc(Cl)c(C(F)(F)F)c3)c(F)c2)ccn1
OVCAR-8 ovarian
  GI50: 2.39 µM and 2.31 µM
  TGI: > 20.8 µM and 8.28 µM
NCI-H23 lung
  GI50: 1.42 µM and 1.44 µM
  TGI: 6.29 µM and 7.14 µM
HOP-92 NSCLC
  GI50: 0.822 µM and 0.74 µM
  TGI: 5.55 µM and 5.15 µM
HS 578T breast
  GI50: 1.59 µM and 1.61 µM
  TGI: 16.9 µM and > 10 µM
UO-31 renal
  GI50: 1.53 µM and 1.82 µM
  TGI: 4.22 µM and > 10 µM
OVCAR-3 ovarian
  GI50: 3.05 µM and 3.03 µM
  TGI: 11.6 µM and > 10 µM
SF-295 CNS
  GI50: 2.82 µM and 2.29 µM
  TGI: 19.8 µM and > 10 µM

## COc1ccc2c(c1)c(-c1nc(-c3c[nH]c4ccncc34)cs1)cn2C
OVCAR-8 ovarian
  GI50: 1.99 µM
  TGI: 3.82 µM
NCI-H23 lung
  GI50: 1.82 µM
  TGI: 3.39 µM
HOP-92 NSCLC
  GI50: 1.64 µM
  TGI: 3.33 µM
HS 578T breast
  GI50: 2.03 µM
  TGI: 4.02 µM
UO-31 renal
  GI50: 1.58 µM
  TGI: 2.97 µM
OVCAR-3 ovarian
  GI50: 1.88 µM
  TGI: 3.34 µM
SF-295 CNS
  GI50: 1.69 µM
  TGI: 3.13 µM

## O=C(/C=C\c1ccc([N+](=O)[O-])cc1)c1ccccc(=O)c1O
OVCAR-8 ovarian
  TGI: 11.3 µM
NCI-H23 lung
  TGI: 12.4 µM
HOP-92 NSCLC
  TGI: 7.77 µM
HS 578T breast
  TGI: 36.8 µM
UO-31 renal
  TGI: 3.3 µM
OVCAR-3 ovarian
  TGI: 14.4 µM
SF-295 CNS
  TGI: 14.7 µM

## CNC(=O)c1c(NC(=O)c2ccc(C(C)(C)C)cc2)sc2c1CCC(=O)C2
OVCAR-8 ovarian
  GI50: 0.292 µM
  TGI: 3.19 µM
NCI-H23 lung
  GI50: 0.266 µM
  TGI: 1.24 µM
HOP-92 NSCLC
  GI50: 0.358 µM
  TGI: 2.03 µM
HS 578T breast
  GI50: 0.38 µM
  TGI: 3.07 µM
UO-31 renal
  GI50: 0.214 µM
  TGI: 0.819 µM
OVCAR-3 ovarian
  GI50: 0.444 µM
  TGI: 1.6 µM
SF-295 CNS
  GI50: 0.334 µM
  TGI: 1.35 µM

## Cc1ccc(/C=N/Nc2nc(Nc3ccccc3)nc(-n3nc(C)cc3C)n2)cc1
OVCAR-8 ovarian
  GI50: 3.33 µM
  TGI: 11.5 µM
NCI-H23 lung
  GI50: 5.41 µM
  TGI: 24.3 µM
HOP-92 NSCLC
  GI50: 2.28 µM
  TGI: 10.9 µM
HS 578T breast
  GI50: 5.03 µM
  TGI: 56.5 µM
UO-31 renal
  GI50: 4.09 µM
  TGI: 19.7 µM
OVCAR-3 ovarian
  GI50: 3.2 µM
  TGI: 43.6 µM
SF-295 CNS
  GI50: 2.74 µM
  TGI: 14.4 µM

## CN(C)c1ccc2oc(=O)c3ccccc3c2c1
OVCAR-8 ovarian
  TGI: > 100 µM
NCI-H23 lung
  TGI: 64.2 µM
HOP-92 NSCLC
  TGI: > 100 µM
HS 578T breast
  TGI: 92 µM
OVCAR-3 ovarian
  TGI: > 100 µM
SF-295 CNS
  TGI: > 100 µM

## COC(=O)c1ccc(CN2C(=O)C(Cl)=C(Nc3cccc(Cl)c3C)C2=O)cc1
OVCAR-8 ovarian
  GI50: 37.2 µM
  TGI: > 100 µM
NCI-H23 lung
  GI50: 10.3 µM
  TGI: > 100 µM
HOP-92 NSCLC
  GI50: 17 µM
  TGI: > 100 µM
HS 578T breast
  GI50: 21 µM
  TGI: 95.5 µM
UO-31 renal
  GI50: 15.1 µM
  TGI: > 100 µM
OVCAR-3 ovarian
  GI50: 20.2 µM
  TGI: 70.3 µM
SF-295 CNS
  GI50: 35.4 µM
  TGI: > 100 µM

## NC(=O)c1cc([N+](=O)[O-])c(Cl)c([N+](=O)[O-])c1Cl
OVCAR-8 ovarian
  GI50: 1.26 µM
  TGI: 2.56 µM
NCI-H23 lung
  GI50: 1.96 µM
  TGI: 4.25 µM
HOP-92 NSCLC
  GI50: 1.84 µM
  TGI: 3.45 µM
HS 578T breast
  GI50: 1.98 µM
  TGI: 4.98 µM
UO-31 renal
  GI50: 1.58 µM
  TGI: 3.48 µM
OVCAR-3 ovarian
  GI50: 1.14 µM
  TGI: 2.35 µM
SF-295 CNS
  GI50: 3.29 µM
  TGI: 12.1 µM

## O=S(=O)(O)c1cc(O)c(N=Nc2ccc(O)cc2O)c2ccccc12
OVCAR-8 ovarian
  TGI: > 100 µM
HOP-92 NSCLC
  TGI: > 100 µM
HS 578T breast
  TGI: > 100 µM
OVCAR-3 ovarian
  TGI: > 100 µM
SF-295 CNS
  TGI: > 100 µM

## C[C@]12CC[C@H]3[C@@H](CC=C4C[C@@H](N5CCCC5)CC[C@@]43C)[C@@H]1C/C(=C\c1cccc(OCCN3CCOCC3)c1)[C@@H]2O
OVCAR-8 ovarian
  GI50: 3.74 µM
  TGI: 21.7 µM
NCI-H23 lung
  GI50: 13.3 µM
  TGI: 41.6 µM
HS 578T breast
  GI50: 2.88 µM
  TGI: 18.2 µM
UO-31 renal
  GI50: 3.11 µM
  TGI: 9.97 µM
OVCAR-3 ovarian
  GI50: 2.3 µM
  TGI: 7.55 µM
SF-295 CNS
  GI50: 2.96 µM
  TGI: > 100 µM

## CC1=C(c2ccccc2)C(O)(c2ccccc2)C(C)C1=O (stereo unspecified)
OVCAR-8 ovarian
  GI50: 48 µM
  TGI: > 100 µM
NCI-H23 lung
  GI50: 10.1 µM
  TGI: 46.4 µM
HOP-92 NSCLC
  GI50: 4.07 µM
  TGI: 65 µM
UO-31 renal
  GI50: 13.2 µM
  TGI: > 100 µM
OVCAR-3 ovarian
  GI50: 16.5 µM
  TGI: > 100 µM
SF-295 CNS
  GI50: 12.7 µM
  TGI: 62.6 µM

## CCOC(=O)c1cc2c(cc1Cl)SC(=Nc1ccccc1)N(S(=O)(=O)c1ccc(Cl)cc1)S2(=O)=O
OVCAR-8 ovarian
  GI50: 22.1 µM
  TGI: 59.6 µM
NCI-H23 lung
  GI50: 13.5 µM
  TGI: 29.8 µM
HS 578T breast
  GI50: 17 µM
  TGI: 52.9 µM
UO-31 renal
  GI50: 15.9 µM
  TGI: 33.3 µM
OVCAR-3 ovarian
  GI50: 12.2 µM
  TGI: 26.3 µM
SF-295 CNS
  GI50: 19.5 µM
  TGI: 48.6 µM

## Nc1nc([Se])c2ncn(C3OC(CO)C(O)C3O)c2n1 (stereo unspecified)
OVCAR-8 ovarian
  GI50: 3.86 µM
  TGI: > 100 µM
NCI-H23 lung
  GI50: 5.05 µM
  TGI: > 100 µM
HS 578T breast
  GI50: 4.71 µM
  TGI: > 100 µM
UO-31 renal
  GI50: 24.3 µM
  TGI: > 100 µM
OVCAR-3 ovarian
  GI50: 17.4 µM
  TGI: 68.8 µM
SF-295 CNS
  GI50: 3.95 µM
  TGI: > 100 µM

## COc1cc(/C=C/C(=O)/C=C/c2ccc(-n3ccnc3C)cc2)ccc1O
OVCAR-8 ovarian
  GI50: 3.52 µM
  TGI: > 100 µM
NCI-H23 lung
  GI50: 2.08 µM
  TGI: 5.5 µM
HOP-92 NSCLC
  GI50: 10.1 µM
  TGI: 45.6 µM
UO-31 renal
  GI50: 1.51 µM
  TGI: 3.15 µM
OVCAR-3 ovarian
  GI50: 2.85 µM
  TGI: 8.41 µM
SF-295 CNS
  GI50: 24.6 µM
  TGI: > 100 µM

## CNC(=O)c1c(NC(=O)c2ccc(C(C)(C)C)cc2)sc2c(CN(C)C)c(O)ccc12
HOP-92 NSCLC
  GI50: 1.2 µM
  TGI: 2.74 µM
HS 578T breast
  GI50: 2.02 µM
  TGI: 4.56 µM
UO-31 renal
  GI50: 1.49 µM
  TGI: 2.89 µM
SF-295 CNS
  GI50: 1.86 µM
  TGI: 3.56 µM

## OC(COC(c1ccccc1)(c1ccccc1)c1ccccc1)C(O)CC1SCCS1 (stereo unspecified)
OVCAR-8 ovarian
  TGI: 57.7 µM
NCI-H23 lung
  TGI: 40 µM
HS 578T breast
  TGI: 39.7 µM
UO-31 renal
  TGI: 24.5 µM
OVCAR-3 ovarian
  TGI: 62.9 µM

## CC(C)(C)C1CCC2c3c([nH]c4ccccc34)C3C(=O)N(c4ccc(Cl)cc4)C(=O)C3C2C1 (stereo unspecified)
OVCAR-8 ovarian
  GI50: > 100 µM
  TGI: > 100 µM
NCI-H23 lung
  GI50: 58.4 µM and > 10 µM
  TGI: > 100 µM
HS 578T breast
  GI50: > 100 µM
  TGI: > 100 µM
UO-31 renal
  GI50: > 100 µM
  TGI: > 100 µM
OVCAR-3 ovarian
  GI50: 30.3 µM and > 10 µM
  TGI: > 100 µM

Reference: PubChem BioAssay (NCI)
